The values that follow come from patent US20100305124A1, “Acylated Aminopyridine and Aminopyridazine Insecticides” (BAYER CROPSCIENCE AG, priority 2009, published 2010).

The test system of the first experiment is green peach aphid (Myzus persicae). Kind of experiment: Myzus test (MYZUPE spray treatment), Chinese cabbage leaf discs. It counts as in vivo. The following applies: foliar, application rate of 20 g/ha, spray on Chinese cabbage discs, read-out: effect in % (aphids killed). The protocol:
Myzus Test (MYZUPE Spray Treatment)
Solvents: 78 parts by weight of acetone • • 1.5 parts by weight of dimethylformamide Emulsifier: 0.5 part by weight of alkylaryl polyglycol ether
An appropriate preparation of active ingredient is prepared by mixing 1 part by weight of active ingredient with the stated amounts of solvents and emulsifier and diluting the concentrate with emulsifier-containing water to the desired concentration.
Discs of Chinese cabbage (Brassica pekinensis) infested with all stages of the green peach aphid (Myzus persicae) are sprayed with a preparation of active ingredient at the desired concentration.
After the desired time, the effect in % is determined. Here, 100% means that all of the aphids have been killed; 0% means that no aphids have been killed.
On to `Cc1ncccc1-n1ncc(C(=O)Nc2cccnc2)c1C` [I-2], for which the pest or weed control at 20 g/ha was at least 80%.

Still in this experiment, the particulars now being: foliar, application rate of 500 g/ha, spray on Chinese cabbage discs, read-out: effect in % (aphids killed).
`Cc1ccc(C(=O)N(C)c2cccnc2)cc1NC(=O)NC(C)C` [I-314]: the pest or weed control at 500 g/ha was at least 80%.
The same measure, in the same setting: then `O=C(Nc1cccnc1)c1ccc(OC(F)(F)F)cc1` [I-264], with at least 80%; and `O=C(Nc1cccnc1)c1cnn(CC(F)(F)F)c1C(F)(F)F` [I-282], with at least 80%; and `O=C(Nc1cccnc1)c1cnn(CC(F)(F)F)c1-c1cnccn1` [I-257], with at least 80%.
As for `COc1ccc(C(=O)N(C)c2cccnc2)cc1-n1cccn1` [I-280, 4-Methoxy-N-methyl-3-pyrazol-1-yl-N-pyridin-3-ylbenzamide], the pest or weed control at 500 g/ha was at least 80%.
Turning to `COC(C)c1c(C(=O)N(C)c2cccnc2)cnn1-c1ncccn1` (stereo not drawn) [I-276], the pest or weed control at 500 g/ha was at least 80%.
For `CCC(C)C(=O)Nc1cc(C(=O)N(C)c2cccnc2)ccc1C` (stereo not drawn) [I-311], the pest or weed control at 500 g/ha is at least 80%.
As for `Cc1ccc(C(=O)N(C)c2cccnc2)cc1NC(=O)C(C)C` [I-300, 3-Isobutyrylamino-4,N-dimethyl-N-pyridin-3-ylbenzamide], the pest or weed control at 500 g/ha is at least 80%.
Consider `Cc1ccc(C(=O)N(C)c2cccnc2)cc1[N+](=O)[O-]` [I-295], for which the pest or weed control at 500 g/ha was at least 80%.
For `CN(C(=O)c1ccc2c(c1)OC(F)(F)O2)c1cccnc1` [I-261], the pest or weed control at 500 g/ha was at least 80%.
For the compound `COc1ccc(C(=O)N(C)c2cccnc2)cc1NC(=O)C(C)C` [I-297], the pest or weed control at 500 g/ha is at least 80%.

The test system is the same in another experiment. Kind of experiment: Myzus test (MYZUPE), sprayed aubergine plants. The format is in vivo. The note with it: application rate of 100 ppm, spray on aubergine plants, read-out: effect in % (aphids killed). On the procedure:
Solvent: 3 parts by weight of dimethylformamide Emulsifier: 1 part by weight of polyoxyethylenealkyl phenyl ether
An appropriate preparation of active ingredient is prepared by mixing 1 part by weight of active ingredient with the stated amount of solvent and emulsifier and diluting the concentrate with water to the desired concentration.
Aubergine plants (Solanum melongena) infested by all stages of the green peach aphid (Myzus persicae) are sprayed with a preparation of active ingredient at the desired concentration.
After the desired time, the effect in % is determined; here, 100% means that all of the aphids have been killed. Conversely, 0% means that no aphids have been killed.
Regarding `CCSc1ccc(C(=O)N(CC)c2cccnc2)cc1` [I-65], the pest or weed control at 100 ppm is at least 80%.

The experiment is the same for the next values; noted with them: application rate of 500 ppm, spray on aubergine plants, read-out: effect in % (aphids killed).
As to `CN(C(=O)c1cnc(Oc2ccc(OC(F)(F)F)cc2)c(Cl)c1)c1cccnc1` [I-147], the pest or weed control at 500 ppm is at least 80%.
Take `CC(C)NC(=O)c1cccc(C(=O)N(C)c2cccnc2)c1` [I-75]: the pest or weed control at 500 ppm is at least 80%.
The same measure, in the same setting: the same measure for `Cc1ccccc1Oc1ccc(C(=O)N(C)c2cccnc2)cn1` [I-96]: at least 80%; for `CN(C(=O)c1ccc(Oc2cc(Cl)cc(Cl)c2)nc1)c1cccnc1` [I-123]: at least 80%; for `CN(C(=O)c1cnc(Oc2ccc(C#N)cc2)c(Cl)c1)c1cccnc1` [I-149]: at least 80%.
The same measure, in the same setting: then `Cc1cc(C)nc(Sc2ccc(C(=O)N(Cc3ccc([N+](=O)[O-])cc3)c3cccnc3)cn2)n1` [I-229], with at least 80%.
With `CSCc1ccc(C(=O)N(C)c2cccnc2)cn1` [I-64], the pest or weed control at 500 ppm was at least 80%.
The same measure, in the same setting: the same measure for `O=C(Nc1cccnc1)c1ccc(SC(F)(F)F)cc1` [I-37]: at least 80%.
As to `Cc1cc(C)nc(Sc2ncc(C(=O)N(C)c3cccnc3)cc2Cl)n1` [I-152], the pest or weed control at 500 ppm was at least 80%.
As to `CN(C)c1ccc(C(=O)Nc2cccnc2)cn1` [I-184], the pest or weed control at 500 ppm is at least 80%.
On the same count and under the same terms, the same measure for `COc1cc(OC)nc(Sc2ccc(C(=O)Nc3cccnc3)cc2)n1` [I-176]: at least 80%.
Still for that read-out and setting: the same measure for `Cc1cc(C)nc(Oc2ccc(C(=O)N(C)c3cccnc3)cn2)n1` [I-144]: at least 80%.
Take `CN(C(=O)c1ccc(Oc2ccc(Cl)cc2C#N)nc1)c1cccnc1` [I-113]: the pest or weed control at 500 ppm is at least 80%.
The same measure, in the same setting: then `CCN(C(=O)c1ccc(Sc2nc(OC)nc(OC)n2)cc1)c1cccnc1` [I-190], with at least 80%; and `O=C(Nc1cccnc1)c1ccc(Oc2ccc(C(F)(F)F)cc2)nc1` [I-109], with at least 80%.
For the compound `CCN(C)C(=O)c1cc(C(=O)Nc2cccnc2)ccc1OC` [I-76], the pest or weed control at 500 ppm is at least 80%.
Turning to `COc1ccc(C(=O)N(C)c2cccnc2)cc1C(=O)NC(C)C` [I-79], the pest or weed control at 500 ppm is at least 80%.
As to `CSc1ccc(C(=O)N(C)c2cccnc2)cc1` [I-53], the pest or weed control at 500 ppm was at least 80%.
Take `CCN(C(=O)c1ccc(Oc2ccc(-n3cncn3)cc2)nc1)c1cccnc1` [I-219]: the pest or weed control at 500 ppm is at least 80%.
Same read-out and setting: then `CN(C(=O)c1ccc(Sc2ccc(Cl)cc2)nc1)c1cccnc1` [I-107], with at least 80%; and `CN(C(=O)c1ccc(Oc2ccc(Cl)c(Cl)c2)nc1)c1cccnc1` [I-115], with at least 80%; and `CCSCc1ccc(C(=O)N(C)c2cccnc2)cc1` [I-58], with at least 80%.
As for `COc1cc(OC)nc(Sc2ccc(C(=O)Nc3cccnc3)cn2)n1` [I-173], the pest or weed control at 500 ppm is at least 80%.
For `CSCc1ccc(C(=O)Nc2cccnc2)cc1` [I-32], the pest or weed control at 500 ppm was at least 80%.
With `COc1cc(OC)nc(COc2cccc(C(=O)N(C)c3cccnc3)c2)n1` [I-207], the pest or weed control at 500 ppm was at least 80%.
For the compound `CCN(C(=O)c1ccc(Oc2cccc(C(F)(F)F)c2)nc1)c1cccnc1` [I-221], the pest or weed control at 500 ppm is at least 80%.
On to `O=C(Nc1cccnc1)c1ccc(Cn2cc(Br)c(C(F)(F)F)n2)cc1` [I-20], for which the pest or weed control at 500 ppm is at least 80%.
As to `COc1ccc(Oc2ccc(C(=O)Nc3cccnc3)cn2)cc1` [I-81], the pest or weed control at 500 ppm was at least 80%.
Consider `O=C(Nc1cccnc1)c1ccc(Oc2ccccc2Cl)nc1` [I-82], for which the pest or weed control at 500 ppm is at least 80%.
Turning to `C#CCN(C(=O)c1ccc(Cl)nc1)c1cccnc1` [I-232], the pest or weed control at 500 ppm is at least 80%.
Turning to `O=C(Nc1cccnc1)c1ccc(Oc2cccc(Cl)c2)nc1` [I-83, 6-(3-Chlorophenoxy)-N-pyridin-3-ylnicotinamide], the pest or weed control at 500 ppm was at least 80%.
Same read-out and setting: the same measure for `COc1cc(OC)nc(Oc2ccc(C(=O)N(C)c3cccnc3)cc2)n1` [I-171]: at least 80%; for `Cc1ccc(C(=O)Nc2cccnc2)cn1` [I-38]: at least 80%; for `O=C(Nc1cccnc1)c1ccc(Cn2cnc(C(F)(F)F)n2)cc1` [I-8]: at least 80%.
Same read-out and setting: then `O=C(Nc1cccnc1)c1ccc(N2CCOCC2)nc1` [I-212], with at least 80%.
In the case of `CN(C(=O)c1ccc(Cn2cccn2)cc1)c1cccnc1` [I-23], the pest or weed control at 500 ppm was at least 80%.
In the case of `CN(C(=O)c1ccc(Cn2cnc(C(F)(F)F)n2)cc1)c1cccnc1` [I-25], the pest or weed control at 500 ppm is at least 80%.
For the compound `CSc1cccc(C(=O)N(C)c2cccnc2)c1` [I-69], the pest or weed control at 500 ppm was at least 80%.
On to `CCN(C(=O)c1ccc(Oc2ccc(Cl)cc2)nc1)c1cccnc1` [I-161], for which the pest or weed control at 500 ppm is at least 80%.
Still for that read-out and setting: then `CCN(C(=O)c1ccc(Oc2ccc(C(F)(F)F)cc2)nc1)c1cccnc1` [I-157], with at least 80%.
On to `CCN(C(=O)c1ccc(Cl)nc1)c1cccnc1` [I-191], for which the pest or weed control at 500 ppm was at least 80%.
With `O=C(Nc1cccnc1)c1ccc(Cn2ccc(C(F)(F)F)n2)nc1` [I-28], the pest or weed control at 500 ppm is at least 80%.
For the compound `CCN(C(=O)c1ccc(Sc2nc(C)cc(C)n2)nc1)c1cccnc1` [I-192], the pest or weed control at 500 ppm is at least 80%.
As to `CSc1ccc(C(=O)Nc2cccnc2)cn1` [I-108], the pest or weed control at 500 ppm was at least 80%.
Take `CN(C(=O)c1ccc(Cn2nc(C(F)(F)F)cc2C(F)(F)F)nc1)c1cccnc1` [I-49]: the pest or weed control at 500 ppm was at least 80%.
Still for that read-out and setting: the same measure for `CN(C(=O)c1ccc(Oc2cccc(C#N)c2)nc1)c1cccnc1` [I-112]: at least 80%; for `CN(C(=O)c1ccc(Oc2cccc(C(F)(F)F)c2)nc1)c1cccnc1` [I-100]: at least 80%.
Turning to `CN(C(=O)c1ccc(SC(F)(F)F)cc1)c1cccnc1` [I-54], the pest or weed control at 500 ppm was at least 80%.
As to `CC(C(=O)c1ccc(Oc2cccc3ncccc23)nc1)c1cccnc1` (stereo not drawn) [I-142], the pest or weed control at 500 ppm is at least 80%.
As for `CCSc1ccc(C(=O)Nc2cccnc2)cc1` [I-55], the pest or weed control at 500 ppm is at least 80%.
Same read-out and setting: the same measure for `CCSCc1ccc(C(=O)Nc2cccnc2)cc1` [I-33]: at least 80%; for `Cc1cc(C)nc(Oc2ccc(C(=O)Nc3cccnc3)cc2)n1` [I-181]: at least 80%; for `CN(C(=O)c1ccc([N+](=O)[O-])cc1)c1cccnc1` [I-21]: at least 80%.
Consider `CCOc1ccc(C(=O)N(C)c2cccnc2)cn1` [I-156], for which the pest or weed control at 500 ppm was at least 80%.
On the same count and under the same terms, the same measure for `Cc1cc(C)nc(SCc2ccc(C(=O)N(C)c3cccnc3)cc2)n1` [I-70]: at least 80%.
Consider `Cc1nc(Sc2ncc(C(=O)N(C)c3cccnc3)cc2Cl)nc(C)c1C` [I-167], for which the pest or weed control at 500 ppm was at least 80%.
The same measure, in the same setting: then `O=C(Nc1cccnc1)c1ccc(Cn2nc(C(F)(F)F)nc2C(F)(F)F)cc1` [I-5], with at least 80%; and `COc1ccc(C(=O)Nc2cccnc2)cc1C(=O)NC(C)C` [I-78], with at least 80%.
As to `CCCNc1ccc(C(=O)Nc2cccnc2)cn1` [I-209], the pest or weed control at 500 ppm was at least 80%.
Still for that read-out and setting: the same measure for `CN(C(=O)c1ccc(/C=N/C2CCCC2)cc1)c1cccnc1` [I-233]: at least 80%.
The same measure, in the same setting: the same measure for `CCN(C(=O)c1ccc(N(C)C(C)=O)cc1)c1cccnc1` [I-254]: at least 80%.
Turning to `O=C(Nc1cccnc1)c1ccc(NCCN2CCOCC2)nc1` [I-223], the pest or weed control at 500 ppm was at least 80%.
